Source: EP0595557A1, “New substituted azetidinones as anti-inflammatory and antidegenerative agents” (MERCK & CO. INC., priority 1992, dated 1994)

Target: T1, Human Polymorphonuclear Leukocyte Elastase (Homo sapiens, UniProt P08246)
T1 construct: Crude extract of human polymorphonuclear leukocytes (PMN) containing elastase activity; from tissue; host or cells: human polymorphonuclear leukocytes (crude extract)
T1 sequence (P08246 30-267): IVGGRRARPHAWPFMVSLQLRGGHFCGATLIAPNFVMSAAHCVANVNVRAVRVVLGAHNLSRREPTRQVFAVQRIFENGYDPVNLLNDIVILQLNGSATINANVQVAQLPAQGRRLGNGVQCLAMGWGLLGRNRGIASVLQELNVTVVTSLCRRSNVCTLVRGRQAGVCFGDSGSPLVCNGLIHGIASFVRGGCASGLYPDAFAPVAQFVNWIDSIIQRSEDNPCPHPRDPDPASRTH
Experiment: Enzyme assay for inhibition of human polymorphonuclear leukocyte elastase via hydrolysis of Boc-AAPAN or Boc-AAPVN
Type: biochemical
Conditions: pH 7.5, second order rate constant for inactivation of the enzyme, expressed to the nearest thousand, read-out: Kobs/[I]
Method: Enzyme Assays for the Inhibition of Human Polymorphonuclear Leukocyte Elastase Via Hydrolysis of N-t-Boc-alanyl-alanyl-prolylalanine-p-nitroanilide (Boc-AAPAN) or N-t-Boc-alanyl-prolylvaline-p-nitro-anilide (Boc-AAPVN) Reagent:
0.05M TES (N-tris[hydroxymethyl]methyl-2-mino-ethanesulfonic acid) Buffer, pH 7.5.
0.2 mM Boc-AAPAN or Boc-AAPVN.
To prepare substrate, the solid was first dissolved in 10.0 ml DMSO. Buffer at pH 7.5 was then added to a final volume of 100 ml.
Crude extract of human polymorphonuclear leukocytes (PMN) containing elastase activity.
Inhibitors (azetidinones) to be tested dissolved in DMSO just before use.
To 1.0 ml of 0.2 mM Boc-AAPAN in a cuvette, 0.01-0.1 ml of DMSO with or without inhibitor was added. After mixing, a measurement was taken at 410 mµ to detect any spontaneous hydrolysis due to presence of test compound. 0.05 Milliliters of PMN extract was then added and the ΔOD/min at 410 mµ was measured and recorded. Beckman model 35 spectrophotometer was used.
Results were expressed to the nearest thousand ^kobs/I which is the second order rate constant in per mole per second for inactivation of the enzyme.
The elastase activity in the crude PMN extract may vary from one preparation to another. A control of each new batch is run, and the volume added in the assay procedure is adjusted according to activity.

Row | SMILES | kinact/KI [M⁻¹ s⁻¹]
1 | CCC[C@@H](NC(=O)N1C(=O)C(CC)(CC)[C@@H]1Oc1ccc(C(=O)N(C)CCNC)cc1)c1ccc(C)cc1 [Compound 92] | 1.45e+06
2 | CCC[C@@H](NC(=O)N1C(=O)C(CC)(CC)[C@@H]1Oc1ccc(C(=O)NCCN2CCCCC2)cc1)c1ccc(C)cc1 [Compound 90] | 941000
3 | CCC[C@@H](NC(=O)N1C(=O)C(CC)(CC)[C@@H]1Oc1ccc(CC(=O)N(CC)CC)cc1)c1ccc(C)c(C(=O)N2CCOCC2)c1 [Compound 270] | 740000
4 | CCC[C@@H](NC(=O)N1C(=O)C(CC)(CC)[C@@H]1Oc1cc(C)c(C(=O)OCCN(C)C)c(C)c1)c1ccc(C)cc1 (relative stereo) [Compound 304, 2-(dimethylamino)ethyl [S,(R*,S*)]-4-[[3,3-diethyl-1-[[[1-(4-methylphenyl)butyl]amino]carbonyl]-4-oxo-2-azetidinyl]oxy]-2,6-dimethyl-benzoate] | 563000
5 | CCC[C@@H](NC(=O)N1C(=O)C(CC)(CC)[C@@H]1Oc1ccc(C(=O)N(C)CC(=O)O)cc1)c1ccc(C)cc1 [Compound 213] | 984000
6 | CCC[C@@H](NC(=O)N1C(=O)C(CC)(CC)[C@@H]1Oc1ccc(C(=O)NS(=O)(=O)CCN2CCOCC2)cc1)c1ccc(C)cc1 [Compound 87] | 775000
7 | CCC[C@@H](NC(=O)N1C(=O)C(CC)(CC)[C@@H]1Oc1ccc(C(=O)N(C)CCN(C)C)cc1)c1ccc(C#N)cc1 [Compound 295] | 846000
8 | CCC[C@@H](NC(=O)N1C(=O)C(CC)(CC)[C@@H]1Oc1ccc(C(=O)N(CCN(C)C)CCN(C)C)cc1)c1ccc(C)cc1 [Compound 143] | 1.88e+06
9 | CCC[C@@H](NC(=O)N1C(=O)C(CC)(CC)[C@@H]1Oc1ccc(CC(=O)N(C)C)cc1)c1ccc(C)cc1 [Compound 67] | 942000
10 | CCC[C@@H](NC(=O)N1C(=O)C(CC)(CC)[C@@H]1Oc1ccc(CC(=O)N(CC)CC)cc1)c1ccc(C)c(C(=O)N(CCC)CCC)c1 [Compound 293] | 457000
11 | CCC[C@@H](NC(=O)N1C(=O)C(CC)(CC)[C@@H]1Oc1ccc(C(=O)N(CCN(C)C)c2ccccc2)cc1)c1ccc(C)cc1 [Compound 82] | 2.5e+06
12 | CCC[C@@H](NC(=O)N1C(=O)C(CC)(CC)[C@@H]1Oc1ccc(C(=O)N(CCC)CCC)cc1)c1ccc(C)cc1 [Compound 127] | 990000
13 | CCC[C@@H](NC(=O)N1C(=O)C(CC)(CC)[C@@H]1Oc1ccc(C(=O)N(C)CCN(C)Cc2ccco2)cc1)c1ccc(C)cc1 [Compound 163] | 1.82e+06
14 | CCC[C@@H](NC(=O)N1C(=O)C(CC)(CC)[C@@H]1Oc1ccc(C(=O)N(C)CCN2CCC(O)C2)cc1)c1ccc(C)cc1 (some centres unmarked) [Compound 138] | 960000
15 | CCC[C@@H](NC(=O)N1C(=O)C(CC)(CC)[C@@H]1Oc1ccc(C(=O)N2CCN(c3ncccn3)CC2)cc1)c1ccc(C)cc1 [Compound 254] | 2.14e+06
16 | CCC[C@@H](NC(=O)N1C(=O)C(CC)(CC)[C@@H]1Oc1ccc(CC(=O)OC)cc1)c1ccc(C(=O)N2CCOCC2)cc1 [Compound 276] | 440000
17 | CCC[C@@H](NC(=O)N1C(=O)C(CC)(CC)[C@@H]1Oc1ccc(C(N)=O)cc1)c1ccc(C)cc1 [Compound 197] | 1.64e+06
18 | CCC[C@@H](NC(=O)N1C(=O)C(CC)(CC)[C@@H]1Oc1ccc(C(=O)NCCN2CCC3(CCCCC3)CC2)cc1)c1ccc(C)cc1 [Compound 99] | 2.58e+06
19 | CCC[C@@H](NC(=O)N1C(=O)C(CC)(CC)[C@@H]1Oc1ccc(C(=O)N2CCNCC2)cc1)c1ccc(C)cc1 [Compound 247, [S-(R*,S*)]-2-[4-[[(4-Piperazin-1-yl)carbonyl]phenoxy] -((3,3-diethyl-N-[1-(4-methylphenyl)butyl]-4-oxo-1-azetidinecarboxamide] | 1.1e+06
20 | CCC[C@@H](NC(=O)N1C(=O)C(CC)(CC)[C@@H]1Oc1ccc(C(=O)N2CCN(CCO)CC2)cc1)c1ccc2c(c1)OCO2 [Compound 265c, [S-(R*,5*)]-2-[4-[[(4-Hydroxyethyl)piperazin-1-yl]carbonyl]phenoxy]-((3,3-diethyl-N-[1-(3,4-methylenedioxyphenyl)butyl]-4-oxo-1-azetidinecarboxamide] | 4.8e+06
